Measured values taken from publication PMC10780011 (2023).

Key:
[1] = system: d(5′-CGCGAATTCGCG-3′)2 (DNA, duplex) CGCGAATTCGCG; assay: ethidium bromide displacement, fluorescence quenching, double-log plot; conditions: 100 mM phosphate; pH 7.0, 298 K; apparent; ethidium bromide displaced; 20 μM DNA
[2] = system: d(5′-CGCGAATTCGCG-3′)2 (DNA, duplex) CGCGAATTCGCG; assay: 1H NMR titration, NOESY; conditions: 100 mM phosphate, pH 7.0, 298 K, H2O:D2O 9:1

SMILES | Kb [1] | binding ([2]; 10 mM NaCl, partial intercalation T7/T8 and groove, precipitates without NaCl) | binding ([2]; minor and major groove, non-specific)
[Ru+2].c1cc[cH-]c1.c1ccc(-c2ccc(-c3ccccc3)cc2)cc1 | 3.532 ± 0.001 × 10^3 M^−1 |  | 
[Ru+2].c1cc[cH-]c1.c1ccc(-c2ccccc2)cc1 | 2.330 ± 0.001 × 10^3 M^−1 |  | 
[Ru+2].[Ru+2].c1cc[cH-]c1.c1cc[cH-]c1.c1ccc(-c2ccc(-c3ccccc3)cc2)cc1 | 0.815 ± 0.001 × 10^3 M^−1 |  | 

Now from value to molecule, other results behind:

Kb [1] | SMILES | binding ([2]; 10 mM NaCl, partial intercalation T7/T8 and groove, precipitates without NaCl) | binding ([2]; minor and major groove, non-specific)
8.111 ± 0.001 × 10^3 M^−1 | [Ru+2].c1cc[cH-]c1.c1ccc(-c2ccc(-c3ccc(-c4ccccc4)cc3)cc2)cc1 | yes | 
2.803 ± 0.121 × 10^3 M^−1 | [Ru+2].[Ru+2].[Ru+2].c1cc[cH-]c1.c1cc[cH-]c1.c1cc[cH-]c1.c1ccc(-c2ccc(-c3ccc(-c4ccccc4)cc3)cc2)cc1 |  | 
5.933 ± 0.001 × 10^3 M^−1 | [Ru+2].[Ru+2].c1cc[cH-]c1.c1cc[cH-]c1.c1ccc(-c2ccc(-c3ccc(-c4ccccc4)cc3)cc2)cc1 |  | yes
